Values after ≈ are worked out from the molar mass of the structure shown.
Assay: Udenafil solubility test at different pHs
Format: physicochemical
Settings: thermodynamic from solid; in purified water (Comparative Example 1)
Method: A pH adjusting agent was added to 5 ml of purified water, and the mixture was stirred for 10 minutes, and then udenafil was added thereto, thus preparing the solutions shown in Table 1 above.
Detector: UV detector (292 nm)
Column temperature: 30° C.
Mobile phase: 2.72 g of KH2PO4 dissolved in 1 L of purified water (A); acetonitrile (B); A:B=700:300

solubility at 2 h: ~120 µg/mL (≈ 232 µM)
SMILES: CCCOc1ccc(S(=O)(=O)NCCC2CCCN2C)cc1-c1nc2c(CCC)nn(C)c2c(=O)[nH]1 (stereo not shown) [Udenafil, 5-[2-propyloxy-5-(1-methyl-2-pyrrolidinyleneamidosulfonyl)phenyl]-1-methyl-1-propyl-1,6-dihydro-7H-pyrazolo(4,3-d)pyrimidin-7-one]

Source: US20220249493A1, “PHARMACEUTICAL COMPOSITION COMPRISING UDENAFIL” (COREPHARM BIO CO., LTD., priority 2019, published 2022)
